The source of these data is article PMC6130543, “Immunomodulatory activities of isolated compounds from the root-bark of Cussonia arborea” (Pharmaceutical Biology, 2017).

Data set [1] in a line: MTT cytotoxicity assay. To be noted: mouse. Format: cell-based. The method, then:
(§1) Cytotoxicity of test compounds on NIH-3T3 fibroblast cells (ATCC, Manassas, VA, USA) was evaluated by using the standard MTT colorimetric assay. Briefly 100 μL of 5 × 10^4 cells/mL in Dulbacco’s modified eagles medium (DMEM) supplemented with 10% foetal bovine serum (FBS) were plated into 96-wells flat bottom plate and incubated overnight at 37 °C in 5% CO2. Three different concentrations of test compound (1, 10 and 100 µg/mL) were added to the plate in triplicates and incubated for 48 h. 0.5 mg/mL MTT (50 µL) was added to each well, the plate was then further incubated for 4 h. MTT was aspirated and 100 µL of dimethyl sulfoxide (DMSO) was then added to each well. The extent of MTT reduction to formazan within cells was calculated by measuring the absorbance at 540 nm, using spectrophotometer (Spectra Max plus, Molecular Devices, CA, USA). The cytotoxic activity was recorded as concentration causing 50% growth inhibition (IC50) for 3T3 cells. Cycloheximide was used as standard drug.

For data set [2], the system named is phytoheamagglutinin (PHA) activated T-cells. The data set is described as follows: 3H-Thymidine incorporated T-cell proliferation assay. Format: cell-based, human. To be noted: for inhibition of T-cell proliferation (in words): PHA activated T-cells, 1-100 µg/mL; for IC50: read-out: T-cell proliferation inhibition (IC50± SD µg/mL). The method, then:
Lymphocytes were isolated from human heparinized blood. Briefly 10 mL of blood was aseptically collected in heparin containing tube from healthy volunteer. Blood was then mixed with equal volume (1:1) of incomplete RPMI (Roswell Park Memorial Institute) media in 50 mL sterile falcon tube. Lymphocyte separation media (LSM) (5 mL) was added into two sterile 15 mL falcon tubes and 10 mL of the mixture containing blood and RPMI was gently layered on LSM in each tube. Tubes were then centrifuged at 400 g for 20 min at room temperature. The buffy layer appeared at the interface of LSM and plasma was carefully collected and washed at 4 °C for 10 min at 300 g. The supernatant was discarded and pellet containing peripheral blood mononuclear cells (PBMNCs) was collected. Cell viability and counting was performed using trypan blue dye. ^3H-Thymidine incorporated T-cell proliferation assay was performed as described by […] et al. ([2009]). […] After that 50 μL of isolated PBMNCs were added at a concentration of (2 × 10^6 cell/mL). Cells were then stimulated by adding 50 μL of 7.5 μg/mL […]) which acts as mitogen only for T-cells among other PBMNCs. […] The wells received 50 μL cells and 150 μL of 5% FCS/RPMI served as negative control where as positive control contains 50 μL cells, 50 μL of PHA-L and 100 μL of 5% FCS/RPMI. […] Plates were then incubated for 72 h at 37 °C in 5% CO2 incubator. After 72 h, cultures were pulsed with 25 μL of 0.5 μCi/well ^3H-thymidine [Hartmann Analytic, Braunschweig, Germany], and plates were further incubated for 18 h. After incubation cells were harvested using a glass fibre filter and cell harvester [Inotech, Dottikon, Switzerland]. The level of the ^3H-thymidine incorporated into the cells was measured by a LS65000 liquid scintillation counter [Beckman coulter, Fullerton, CA, USA]. Results were expressed as mean count per minutes (CPM). The 50% inhibitory concentration (IC50) values were calculated for all tested compounds.

Data set [3] has as its system serum opsonized zymosan activated whole blood phagocytes (intracellular ROS production). As to the kind of experiment: Oxidative burst assay (luminol-enhanced chemiluminescence). The note with it: for IC50: read-out: ROS inhibition (IC50± SD µg/mL); for inhibition of production of ROS (in words): zymosan activated whole blood phagocytes, 1-100 µg/mL. Format: cell-based, human.

Data set [4] relates to whole blood lymphocyte proliferation. More on the design: method as in Magee et al. [2002]. The note with it: similar work; ref Magee et al. [2002]; cited from earlier work.
In data set [5] the test system is NIH-3T3 fibroblast cells. The data set is described as follows: MTT cytotoxicity assay. Format: cell-based. To be noted: MTT, 48 h; three doses (1, 10 and 100 µg/mL); mean ± SD of three determinations. The method, then: as §1
Setting [6] is: T-cell, PHA-L activated human T-cells, 72 h + 18 h 3H-thymidine, three doses (1, 10 and 100 µg/mL), mean ± SD of three determinations.
[7] abbreviates: zymosan activated human whole blood phagocytes, luminol probe, three doses (1, 10 and 100 µg/mL), mean ± SD of three determinations.
Setting [8] is: MTT, 48 h, three doses (1, 10 and 100 µg/mL), mean ± SD of three determinations, read-out: Cytotoxicity on NIH 3T3-cells (IC50± SD µg/mL).

≈ marks a conversion by molar mass, not a printed value. Read-outs that look alike come from different tables or passages of the source.

As for `CC1(C)CC[C@]2(C(=O)O)CC[C@]3(C)C(=CC[C@@H]4[C@@]5(C)CC[C@H](O)[C@@](C)(CO)[C@@H]5CC[C@]43C)[C@@H]2C1` [Compound 1, 3, 23-dihydroxy-12-oleanen-28-oic acid], the IC50 at 48 h in data set [1] was over 100 µg/mL. Also, the “inhibition of T-cell proliferation (in words)” value in data set [2] is listed as “no inhibition”. Also, the IC50 in data set [2] (setting [6]) was over 100 µg/mL; in data set [3] (setting [7]), 24.4 ± 4.3 µg/mL.

For `CC(C)Cc1ccc(C(C)C(=O)O)cc1` (centres unmarked) [Ibuprofen, reference compound], the IC50 in data set [3] (setting [7]) came to 11.2 ± 1.9 µg/mL.

As to `C[C@]12C=CC(=O)C=C1CC[C@@H]1[C@@H]2[C@@H](O)C[C@@]2(C)[C@H]1CC[C@]2(O)C(=O)CO` [Prednisolone, prednisolone, reference compound], in data set [4], the “IC50 of prednisolone (lymphocyte proliferation)” value is 0.0388 µg/mL. Moreover, the inhibition at 0.62 µg/mL in data set [2] (Homo sapiens, T-cell, at lowest tested concentration (0.62 µg/mL), PHA activator) is 64.3 ± 2%. In data set [2] (setting [6]), the IC50 is under 0.62 µg/mL.

Take `CC[C@H](/C=C/[C@@H](C)[C@H]1CC[C@H]2[C@@H]3CC=C4C[C@@H](O)CC[C@]4(C)[C@H]3CC[C@]12C)C(C)C` [Compound 3, stigmasterol]: the IC50 in data set [1] (setting [8]) and in data set [3] (setting [7]) was over 100 µg/mL throughout. Besides, in data set [3], the “inhibition of production of ROS (in words)” value was “did not inhibit”.

For the compound `CC1(C)CC[C@]2(C(=O)O)CC[C@]3(C)C(=CC[C@@H]4[C@@]5(C)CC[C@H](O)C(C)(C)[C@@H]5CC[C@]43C)[C@@H]2C1` [Compound 2, 3β-hydroxylolean-12-en-28-oic], the IC50 at 48 h in data set [1] (NIH-3T3 fibroblast cells, MTT, 48 h, three doses (1, 10 and 100 µg/mL), mean ± SD of three determinations, read-out: Cytotoxicity on NIH 3T3-cells (IC50± SD µg/mL)) is over 100 µg/mL. The figures for the IC50 in data set [2] (setting [6]) and in data set [3] (setting [7]) were 12.6 ± 0.4 µg/mL and 37.5 ± 0.1 µg/mL, respectively.

Turning to `C[C@@H]1C[C@@H]([C@H](O)CC2CC(=O)NC(=O)C2)C(=O)[C@@H](C)C1` [Cyclohexamide, Cycloheximide, reference compound], the IC50 at 48 h in data set [1] (setting [8]) worked out at 0.13 ± 0.02 µg/mL (≈ 0.462 µM).

On to `CC[C@H](/C=C/[C@@H](C)[C@H]1CC[C@H]2[C@@H]3CC=C4C[C@@H](O[C@@H]5O[C@H](CO)[C@@H](O)[C@H](O)[C@H]5O)CC[C@]4(C)[C@H]3CC[C@]12C)C(C)C` [Compound 4, 3-O-β-D-glucopyranosyl stigmasterol], for which the “Cytotoxicity on NIH 3T3-cells (IC50± SD µg/mL)” value in data set [5] was over 100 µg/mL. In addition, in data set [2], the “inhibition of T-cell proliferation (in words)” value is on record as “no inhibition”. Besides, the “T-cell proliferation inhibition (IC50± SD µg/mL)” value in data set [2] (PHA-L activated human T-cells, 72 h + 18 h 3H-thymidine, three doses (1, 10 and 100 µg/mL), mean ± SD of three determinations) is given as over 100 µg/mL. In addition, the “ROS inhibition (IC50± SD µg/mL)” value in data set [3] (setting [7]) is listed as over 100 µg/mL. In addition, the “inhibition of production of ROS (in words)” value in data set [3] is on record as “did not inhibit”.
